Assay results reported in the NIST ThermoML archive (doi:10.1016/j.jct.2014.05.016).

Test: xn = mol fraction of the nth substance listed
Details: 100 kPa, Liquid; for viscosity: Concentric cylinders viscometry; for mass density: Vibrating tube method

C[n+]1ccn(CCO)c1.F[B-](F)(F)F [1-(2-hydroxyethyl)-3-methylimidazolium tetrafluoroborate] + CCCCn1cc[n+](C)c1.F[B-](F)(F)F
Details | mass density [kg/m3] | viscosity [mPa·s]
293.15 K, x1 = 0.1003 | – | 141.5
293.15 K, x1 = 0.101 | 1217.5 | –
293.15 K, x1 = 0.2001 | – | 138.1
293.15 K, x1 = 0.201 | 1230.9 | –
293.15 K, x1 = 0.2997 | – | 139.6
293.15 K, x1 = 0.3002 | 1245.7 | –
293.15 K, x1 = 0.3999 | – | 140.6
293.15 K, x1 = 0.4006 | 1261.4 | –
293.15 K, x1 = 0.4996 | – | 138.7
293.15 K, x1 = 0.5009 | 1276.1 | –
293.15 K, x1 = 0.5991 | 1292.3 | 143.1
293.15 K, x1 = 0.6997 | – | 144.7
293.15 K, x1 = 0.7001 | 1310.8 | –
293.15 K, x1 = 0.7999 | – | 147.1
293.15 K, x1 = 0.8 | 1326.3 | –
293.15 K, x1 = 0.8995 | 1344.4 | –
293.15 K, x1 = 0.8998 | – | 152.3
293.15 K, x1 = 1 | 1362.4 | 153.6
298.15 K, x1 = 0.1003 | – | 107.8
298.15 K, x1 = 0.101 | 1214 | –
298.15 K, x1 = 0.2001 | – | 105.3
298.15 K, x1 = 0.201 | 1227.4 | –
298.15 K, x1 = 0.2997 | – | 106.6
298.15 K, x1 = 0.3002 | 1242 | –
298.15 K, x1 = 0.3999 | – | 107.4
298.15 K, x1 = 0.4006 | 1257.9 | –
298.15 K, x1 = 0.4996 | – | 105.4
298.15 K, x1 = 0.5009 | 1272.5 | –
298.15 K, x1 = 0.5991 | 1288.6 | 108.3
298.15 K, x1 = 0.6997 | – | 109.3
298.15 K, x1 = 0.7001 | 1307.6 | –
298.15 K, x1 = 0.7999 | – | 111.4
298.15 K, x1 = 0.8 | 1322.5 | –
298.15 K, x1 = 0.8995 | 1340.6 | –
298.15 K, x1 = 0.8998 | – | 114.1
298.15 K, x1 = 1 | 1358.7 | 115.1
303.15 K, x1 = 0.1003 | – | 83.64
303.15 K, x1 = 0.101 | 1210.4 | –
303.15 K, x1 = 0.2001 | – | 81.83
303.15 K, x1 = 0.201 | 1223.9 | –
303.15 K, x1 = 0.2997 | – | 82.64
303.15 K, x1 = 0.3002 | 1238.5 | –
303.15 K, x1 = 0.3999 | – | 83.2
303.15 K, x1 = 0.4006 | 1254.3 | –
303.15 K, x1 = 0.4996 | – | 81.76
303.15 K, x1 = 0.5009 | 1268.9 | –
303.15 K, x1 = 0.5991 | 1284.9 | 83.78
303.15 K, x1 = 0.6997 | – | 84.42
303.15 K, x1 = 0.7001 | 1304.2 | –
303.15 K, x1 = 0.7999 | – | 85.38
303.15 K, x1 = 0.8 | 1318.9 | –
303.15 K, x1 = 0.8995 | 1336.9 | –
303.15 K, x1 = 0.8998 | – | 87.51
303.15 K, x1 = 1 | 1354.8 | 87.98
308.15 K, x1 = 0.1003 | – | 66.1
308.15 K, x1 = 0.101 | 1206.9 | –
308.15 K, x1 = 0.2001 | – | 64.77
308.15 K, x1 = 0.201 | 1220.5 | –
308.15 K, x1 = 0.2997 | – | 65.41
308.15 K, x1 = 0.3002 | 1234.9 | –
308.15 K, x1 = 0.3999 | – | 65.73
308.15 K, x1 = 0.4006 | 1250.7 | –
308.15 K, x1 = 0.4996 | – | 64.71
308.15 K, x1 = 0.5009 | 1265.2 | –
308.15 K, x1 = 0.5991 | 1281.3 | 66.04
308.15 K, x1 = 0.6997 | – | 66.38
308.15 K, x1 = 0.7001 | 1300.8 | –
308.15 K, x1 = 0.7999 | – | 67.14
308.15 K, x1 = 0.8 | 1315.2 | –
308.15 K, x1 = 0.8995 | 1333.1 | –
308.15 K, x1 = 0.8998 | – | 68.51
308.15 K, x1 = 1 | 1351.2 | 68.59
313.15 K, x1 = 0.1003 | – | 53.11
313.15 K, x1 = 0.101 | 1203.3 | –
313.15 K, x1 = 0.2001 | – | 52.17
313.15 K, x1 = 0.201 | 1216.9 | –
313.15 K, x1 = 0.2997 | – | 52.58
313.15 K, x1 = 0.3002 | 1231.3 | –
313.15 K, x1 = 0.3999 | – | 52.83
313.15 K, x1 = 0.4006 | 1247.1 | –
313.15 K, x1 = 0.4996 | – | 51.96
313.15 K, x1 = 0.5009 | 1261.6 | –
313.15 K, x1 = 0.5991 | 1277.7 | 52.99
313.15 K, x1 = 0.6997 | – | 53.19
313.15 K, x1 = 0.7001 | 1297.3 | –
313.15 K, x1 = 0.7999 | – | 53.69
313.15 K, x1 = 0.8 | 1311.5 | –
313.15 K, x1 = 0.8995 | 1329.4 | –
313.15 K, x1 = 0.8998 | – | 54.68
313.15 K, x1 = 1 | 1347.4 | 54.81
318.15 K, x1 = 0.1003 | – | 43.44
318.15 K, x1 = 0.2001 | – | 42.58
318.15 K, x1 = 0.2997 | – | 42.92
318.15 K, x1 = 0.3999 | – | 43.11
318.15 K, x1 = 0.4996 | – | 42.41
318.15 K, x1 = 0.5991 | – | 43.22
318.15 K, x1 = 0.6997 | – | 43.31
318.15 K, x1 = 0.7999 | – | 43.66
318.15 K, x1 = 0.8998 | – | 44.39
318.15 K, x1 = 1 | – | 44.44
